Patent US8802597B2, “Herbicidal pyrimidines” (E I du Pont de Nemours and Company, priority 2003, dated 2014)
Like-named read-outs stand apart in the source and are kept apart here.

Columns and labels:
Assay in all cases: Test C pre/postemergence
Type in all cases: in vivo
[1] = system: crabgrass (Digitaria sanguinalis); conditions: Digitaria sanguinalis; for pest or weed control at 31 g/ha: 31 g ai/ha; for pest or weed control at 62 g/ha: 62 g ai/ha; for pest or weed control at 125 g/ha: 125 g ai/ha
Summary of the method: (§1)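 Rating scale 0–100: 0 means no effect, 100 complete control; taken visually 12 to 14 days post-treatment versus controls. Pre- and postemergence greenhouse applications, postemergence at 1- to 4-leaf stage, non-phytotoxic solvent with surfactant as carrier.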

[2] = system: morningglory (Ipomoea coccinea); conditions: Ipomoea; for pest or weed control at 31 g/ha: 31 g ai/ha; for pest or weed control at 62 g/ha: 62 g ai/ha; for pest or weed control at 125 g/ha: 125 g ai/ha
Summary of the method: as §1

[3] = system: soybean (Glycine max); conditions: Glycine max; for plant injury at 31 g/ha: 31 g ai/ha; for plant injury at 62 g/ha: 62 g ai/ha
Summary of the method: as §1

[4] = system: johnsongrass (Sorghum halepense); conditions: Sorghum halepense; for pest or weed control at 31 g/ha: 31 g ai/ha; for pest or weed control at 62 g/ha: 62 g ai/ha; for pest or weed control at 125 g/ha: 125 g ai/ha
Summary of the method: as §1

[5] = system: pigweed (Amaranthus retroflexus); conditions: Amaranthus retroflexus; for pest or weed control at 31 g/ha: 31 g ai/ha; for pest or weed control at 62 g/ha: 62 g ai/ha
Summary of the method: as §1

[6] = system: Surinam grass (Brachiaria decumbens); conditions: Urochloa decumbens
Summary of the method: as §1

[7] = post-emergence, Postemergence, read-out: Plant response rating (scale of 0 to 100), Crabgrass
[8] = pre-emergence, Preemergence, scale 0 to 100, 0 no effect, 100 complete control, read-out: Plant response rating, Crabgrass
[9] = post-emergence, Postemergence, read-out: Plant response rating (scale of 0 to 100), Morningglory
[10] = pre-emergence, Preemergence, scale 0 to 100, 0 no effect, 100 complete control, read-out: Plant response rating, Morningglory
[11] = post-emergence, Postemergence, read-out: Plant response rating (scale of 0 to 100), Soybean
[12] = pre-emergence, Preemergence, scale 0 to 100, 0 no effect, 100 complete control, read-out: Plant response rating, Soybean
[13] = post-emergence, Postemergence, read-out: Plant response rating (scale of 0 to 100), Johnsongrass
[14] = pre-emergence, Preemergence, scale 0 to 100, 0 no effect, 100 complete control, read-out: Plant response rating, Johnsongrass
[15] = post-emergence, Postemergence, read-out: Plant response rating (scale of 0 to 100), Pigweed
[16] = pre-emergence, Preemergence, scale 0 to 100, 0 no effect, 100 complete control, read-out: Plant response rating, Pigweed

## Nc1nc(C2CC2)nc(C(=O)OCc2ccccc2)c1Cl [Compound 78, phenylmethyl 6-amino-5-chloro-2-cyclopropyl-4-pyrimidinecarboxylate]
[1]; [7]
  pest or weed control at 31 g/ha: 55%
  pest or weed control at 62 g/ha: 90%
[1]; post-emergence, Postemergence, scale 0 to 100 (0 no effect, 100 complete control), read-out: Crabgrass plant response rating
  pest or weed control at 125 g/ha: 90%
[1]; post-emergence, Postemergence, 250 g ai/ha, scale 0 to 100, read-out: Plant response rating, Crabgrass
  pest or weed control at 250 g/ha: 90%
[1]; pre-emergence, Preemergence, 16 g ai/ha, scale 0 to 100, 0 no effect, 100 complete control, read-out: Plant response rating, Crabgrass
  pest or weed control at 16 g/ha: 0%
[1]; [8]
  pest or weed control at 31 g/ha: 5%
  pest or weed control at 62 g/ha: 40%
[1]; pre-emergence, Preemergence, scale 0 to 100, read-out: Plant response rating, Crabgrass
  pest or weed control at 125 g/ha: 45%
[2]; [9]
  pest or weed control at 31 g/ha: 90%
  pest or weed control at 62 g/ha: 90%
[2]; post-emergence, Postemergence, scale 0 to 100 (0 no effect, 100 complete control), read-out: Morningglory plant response rating
  pest or weed control at 125 g/ha: 100%
[2]; post-emergence, Postemergence, 250 g ai/ha, scale 0 to 100, read-out: Plant response rating, Morningglory
  pest or weed control at 250 g/ha: 100%
[2]; pre-emergence, Preemergence, 16 g ai/ha, scale 0 to 100, 0 no effect, 100 complete control, read-out: Plant response rating, Morningglory
  pest or weed control at 16 g/ha: 0%
[2]; [10]
  pest or weed control at 31 g/ha: 70%
  pest or weed control at 62 g/ha: 85%
[2]; pre-emergence, Preemergence, scale 0 to 100, read-out: Plant response rating, Morningglory
  pest or weed control at 125 g/ha: 100%
[3]; [11]
  plant injury at 31 g/ha: 90%
  plant injury at 62 g/ha: 100%
[3]; post-emergence, Postemergence, 125 g ai/ha, scale 0 to 100 (0 no effect, 100 complete control), read-out: Soybean plant response rating
  plant injury at 125 g/ha: 100%
[3]; post-emergence, Postemergence, 250 g ai/ha, scale 0 to 100, read-out: Plant response rating, Soybean
  plant injury at 250 g/ha: 100%
[3]; pre-emergence, Preemergence, 16 g ai/ha, scale 0 to 100, 0 no effect, 100 complete control, read-out: Plant response rating, Soybean
  plant injury at 16 g/ha: 30%
[3]; [12]
  plant injury at 31 g/ha: 70%
  plant injury at 62 g/ha: 80%
[4]; [13]
  pest or weed control at 31 g/ha: 10%
  pest or weed control at 62 g/ha: 10%
[4]; post-emergence, Postemergence, scale 0 to 100 (0 no effect, 100 complete control), read-out: Johnsongrass plant response rating
  pest or weed control at 125 g/ha: 20%
[4]; post-emergence, Postemergence, 250 g ai/ha, scale 0 to 100, read-out: Plant response rating, Johnsongrass
  pest or weed control at 250 g/ha: 40%
[4]; pre-emergence, Preemergence, 16 g ai/ha, scale 0 to 100, 0 no effect, 100 complete control, read-out: Plant response rating, Johnsongrass
  pest or weed control at 16 g/ha: 0%
[4]; [14]
  pest or weed control at 31 g/ha: 10%
  pest or weed control at 62 g/ha: 20%
[4]; pre-emergence, Preemergence, scale 0 to 100, read-out: Plant response rating, Johnsongrass
  pest or weed control at 125 g/ha: 50%
[5]; [15]
  pest or weed control at 31 g/ha: 50%
  pest or weed control at 62 g/ha: 80%
[5]; post-emergence, Postemergence, 125 g ai/ha, scale 0 to 100 (0 no effect, 100 complete control), read-out: Pigweed plant response rating
  pest or weed control at 125 g/ha: 95%
[5]; post-emergence, Postemergence, 250 g ai/ha, scale 0 to 100, read-out: Plant response rating, Pigweed
  pest or weed control at 250 g/ha: 100%
[5]; pre-emergence, Preemergence, 16 g ai/ha, scale 0 to 100, 0 no effect, 100 complete control, read-out: Plant response rating, Pigweed
  pest or weed control at 16 g/ha: 55%
[5]; [16]
  pest or weed control at 31 g/ha: 60%
  pest or weed control at 62 g/ha: 70%
[6]; post-emergence, Postemergence, 125 g ai/ha, scale 0 to 100 (0 no effect, 100 complete control), read-out: Surinam Grass plant response rating
  pest or weed control at 125 g/ha: 55%
[6]; post-emergence, Postemergence, 31 g ai/ha, read-out: Plant response rating (scale of 0 to 100), Surinam Grass
  pest or weed control at 31 g/ha: 50%
[6]; post-emergence, Postemergence, 62 g ai/ha, read-out: Plant response rating (scale of 0 to 100), Surinam Grass
  pest or weed control at 62 g/ha: 55%
[6]; post-emergence, Postemergence, 250 g ai/ha, scale 0 to 100, read-out: Plant response rating, Surinam Grass
  pest or weed control at 250 g/ha: 90%
[6]; pre-emergence, Preemergence, 16 g ai/ha, scale 0 to 100, 0 no effect, 100 complete control, read-out: Plant response rating, Surinam Grass
  pest or weed control at 16 g/ha: 0%
